The target in the assay is T1, Parkin (Homo sapiens, UniProt O60260).
T1 construct: Enzyme 3: Parkin-His tagged 203 μM (10.5 mg/ml)
In words: Parkin pUB auto-ubiquitinylation assay (TR-FRET). It counts as biochemical. As to conditions: activation of pUb activated Parkin; read-out: Auto-ubiq EC50 (μM) [Example 3]. An excerpt: A Parkin pUB Auto-ubiquitinylation Assay is used to evaluate a compound's potency to activate Parkin's ability to Auto-ubiquitinylate itself.
The principle of this assay is that the E3 Ligase Parkin catalyzes the transfer of Ubiquitin to target proteins, but also has the ability to auto-ubiquitinylate itself. The phospho-Ubiquition (pUb) added to the assay alters the Parkin to a state where small molecule activators can enable the Parkin to auto-ubiquitinylate though the E1-E2 cascade reaction. The use of a Eu cryptate Ubiquition and anti 6His-d2 that binds to the His tagged Parkin will give a signal when the Eu cryptate Ubiquition is auto-ubiquitinylate onto the Parkin which can be monitored by TR-FRET.
Similar to the Activity-based probe assay in Example 2, screening for activating compounds can be distinguished from the controls as follows:
100% activation signal=pUb activated Parkin+40 nM control activator in DMSO. 0% activation signal=pUb activated Parkin+DMSO only. Parkin activators can be identified by an increase of the 0% activation signal TR-FRET signal.
• Assay Plate: White 384 well plate (Corning 3572) • Enzyme 1: E1 (Ubiquitin-activating enzyme/UBE1 Boston Biochem E-305) • Enzyme 2: E2 (UBcH7/Ube2L3 Boston Biochem E2-640) • Enzyme 3: Parkin-His tagged 203 μM (10.5 mg/ml) • pUb: Phospho-Ubiquitin (S65) (Boston Biochem U-102) • Eu Cryptate Reagent: Ubiquitin Eu (CisBio 61UBIKLA) • DMSO: DMSO (Sigma-34869-2.5L) • Reaction Buffer: 50 mM HEPES, 50 mM NaCl, 1 mM MgCl2, 0.005% Tween 20, 0.1% • PF-127 (Fisher Scientific 50-310-494), pH 8.5 • Detection Buffer: 50 mM HEPES, 50 mM NaCl, 800 mM KF, 5 mM EDTA, 0.005% • Tween 20, 0.1% PF-127, pH 8.5 • Detection Reagent Z: 13.4 nM Anti-6His-d2 in detection buffer • d2 Reagent: Anti-6His-d2 (CisBio 61HISDLA)
Enzyme Reaction (15 min Pre-Incubation with Parkin, pUb and Activator Only) • Parkin: 196 nM • pUb: 196 nM • DMSO: 1% DMSO • E1: 5 nM • E2: 50 nM • Ubiquitin Eu: 8.8 nM • Reaction time: 120 minutes • Temperature: 22° C. • Total volume: 10 μl reaction
Take 10 μl of Enzyme Reaction above and add 10 μl detection Reagent Z under the following conditions:
Reaction time: 60 minutes
1) Load assay plate wells with 4.9 μl 400.0 nM Parkin, 400 nM pUb in reaction buffer by use of Eppendorf 12-channel pipette. 2) Deliver 0.1 μl 100× activator candidates in DMSO by use of Echo 555 compound dispenser. Highest 100× concentration=100 μm and then twofold dilutions. Add each compound and control in duplicate wells. 3) Spin 1000 rpm, 2 minutes, at room temp. 4) Incubate plate for 15 minutes at room temp. 5) Add 5 μl 10 nM E1, 100 nM E2, 17.6 nM Ubiquitin Eu and 2 mM ATP in Reaction Buffer by use of Eppendorf 12-channel pipette. 6) Spin 1000 rpm, 2 minutes, at room temp. 7) Incubate plate for 120 minutes at room temp. 8) Add 10 μl 13.4 nM anti his d2 in detection buffer by use of Eppendorf 12-channel pipette. 9) Spin 1000 rpm, 2 minutes, at room temp. 10) Incubate plate for 120 minutes at room temp. 11) Read plates on Perkin Elmer Envision instrument with the following parameters:
LANCE dual laser protocol loaded into the Envision® software
Top Mirror: LANCE/DELFIA Duel/Bias (Bar code 446) Emission Filter: APC 665 EM (Bar code 205) 2nd Emission Filter: Europium 615 EM (Bar code 203) Read […] (channel 1) and 615 nm (channel 2) wavelengths on Envision®
Data Analysis: The Data can be read in CSV files. There are two tables in those CSV files, which are the values of 655 nm (channel 1) and 615 nm (channel 2) wavelengths respectively. The data is converted to an HTRF Ratio=(Channel 1/Channel 2)*10,000
The average of all the 0 uM controls (DMSO only)=BKGD (Background—0% activation). Subtract BKGD from each HTRF Ratio value=HTRF-BKGD. The average of all the 100 uM control activator in DMSO controls=Max (100% activation). The following equation is then used to calculate % Activation for each well/candidate as follows: % Activation=(HTRF−BKGD/Max)*100.
XLFIT5 model 205 was applied for the data analysis. […]
On the technique in general: TR-FRET usually uses a lanthanide donor and a delayed reading to cut background.

Bounds are passed on as bounds.

T1 sequence (O60260 whole entry, other chains not shown): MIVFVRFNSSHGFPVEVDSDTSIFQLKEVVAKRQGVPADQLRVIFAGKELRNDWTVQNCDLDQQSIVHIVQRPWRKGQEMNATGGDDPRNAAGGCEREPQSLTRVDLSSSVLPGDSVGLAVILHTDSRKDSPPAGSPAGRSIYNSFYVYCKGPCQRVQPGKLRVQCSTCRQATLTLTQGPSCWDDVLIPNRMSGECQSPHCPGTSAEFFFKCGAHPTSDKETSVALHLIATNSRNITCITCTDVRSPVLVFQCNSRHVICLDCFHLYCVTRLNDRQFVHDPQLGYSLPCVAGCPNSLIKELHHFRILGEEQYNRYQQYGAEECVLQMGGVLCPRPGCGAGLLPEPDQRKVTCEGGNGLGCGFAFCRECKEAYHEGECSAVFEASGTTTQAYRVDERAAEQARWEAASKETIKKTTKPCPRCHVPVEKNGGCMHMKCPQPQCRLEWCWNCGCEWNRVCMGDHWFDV

The term EC50 denotes the concentration needed to bring the measured effect to its halfway point. With `Cc1nc2c(C3CCN(C)CC3)c(C)nn2c(O)c1Cc1ccccc1` [Compound O3], the concentration giving a half-maximal response (EC50) is > 40 µM.

As for `Sc1c(Cc2ccccc2)cnc2c(-c3ccccc3)cnn12` [Compound Z, 6-benzyl-3-phenyl-pyrazolo[1,5-a]pyrimidin-7-thiol], the EC50 was > 40 µM.

In the case of `Cc1cc2nc(C)c(Cc3ccc(Cl)cc3)c(S)n2n1` [Compound R, 6-[(4-chlorophenyl)methyl]-2,5-dimethyl-pyrazolo[1,5-a]pyrimidine-7-thiol], the EC50 is > 40 µM.

With `Cc1nn2c(S)c(CCc3ccccc3)cnc2c1-c1ccccc1` [Compound E3], the concentration for a half-maximal effect (EC50) was found to be 29 µM.

As to `Cc1nc2c(C(F)(F)F)c(C)nn2c(S)c1Cc1ccccc1` [LL], the EC50 worked out at 16.5 µM.

Consider `Cc1nc2c(-c3ccccc3)c(C)nn2c(O)c1Cc1ccncc1` [Compound X, 2,5-dimethyl-3-phenyl-6-(4-pyridylmethyl)pyrazolo[1,5-a]pyrimidin-7-ol], for which the concentration giving a half-maximal response (EC50) was > 40 µM.

Turning to `Cc1nn2c(O)c(Cc3ccccc3)cnc2c1-c1ccccc1` [Compound V, 6-benzyl-2-methyl-3-phenyl-pyrazolo[1,5-a]pyrimidin-7-ol], the EC50 was > 40 µM.

Regarding `Cc1nn2c(O)c3c(nc2c1-c1ccccc1)CCN(C)C3` [Compound K3], the EC50 was > 40 µM.

In the case of `Cc1nc2c(C(=O)N(C)C)c(C)nn2c(O)c1Cc1ccccc1` [EE], the EC50 is > 40 µM.

For the compound `Cc1ccc(-c2cnn3c(S)cc(C)nc23)cc1` [TT], the concentration giving a half-maximal response (EC50) was > 40 µM.

On to `Cc1cc(S)n2nc(C)c(-c3ccc(Cl)cc3)c2n1` [N], for which the half-maximal effective concentration (EC50) was > 40 µM.

Consider `Cc1cc(S)n2nc(C)c(-c3ccccc3)c2n1` [O], for which the EC50 was > 40 µM.

Take `Cc1cc(C)c2c(n1)nn1c(S)cc(C)nc21` [Compound E]: the EC50 was determined as 10.1 µM.

For `Cc1cc(O)n2ncc(-c3ccc(F)cc3)c2n1` [PP], the EC50 was > 40 µM.

The record behind these values is US20210163489A1, “PYRAZOLOPYRIMIDINE DERIVATIVES AND THE COMPOSITIONS AND METHODS OF TREATMENT REGARDING THE SAME” (NysnoBio Ireland DAC, priority 2016, published 2021).
